From paper PMC9133015 (Nature Communications, 2022)
Several values for one entry are separate records, joined by “and”; a condition that tells them apart may be missing. Identical values can stand only once.

Target: T1, DYRK2 (Homo sapiens, UniProt Q92630)
T1 construct: purchased Reaction Biology Corporation (assay service)
T1 sequence (Q92630 1-601): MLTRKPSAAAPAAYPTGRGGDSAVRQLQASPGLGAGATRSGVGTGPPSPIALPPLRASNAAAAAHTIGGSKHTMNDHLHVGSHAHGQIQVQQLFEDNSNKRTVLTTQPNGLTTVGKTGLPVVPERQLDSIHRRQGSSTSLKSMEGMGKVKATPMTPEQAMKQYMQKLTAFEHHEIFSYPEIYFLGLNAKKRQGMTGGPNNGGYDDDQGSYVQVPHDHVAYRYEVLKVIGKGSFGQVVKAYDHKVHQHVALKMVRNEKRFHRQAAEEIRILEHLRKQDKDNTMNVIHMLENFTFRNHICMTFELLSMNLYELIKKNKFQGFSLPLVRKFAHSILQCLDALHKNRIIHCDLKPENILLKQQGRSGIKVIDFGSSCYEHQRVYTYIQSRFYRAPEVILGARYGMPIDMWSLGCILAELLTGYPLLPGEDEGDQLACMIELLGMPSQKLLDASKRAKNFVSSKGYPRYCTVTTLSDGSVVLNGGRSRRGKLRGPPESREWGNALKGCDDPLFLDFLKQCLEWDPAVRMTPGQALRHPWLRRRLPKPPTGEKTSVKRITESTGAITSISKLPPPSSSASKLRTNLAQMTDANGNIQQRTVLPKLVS
Assay: DYRKs kinase activity assay (33P-ATP, DYRKtide substrate): DYRK2
Type: biochemical
Settings: for IC50: Supplementary Table 1, read-out: IC50 (μM), DYRK2 kinase

[1] = DYRK2 kinase, Conc. 0.000508053 µM, duplicate values
[2] = DYRK2 kinase, Conc. 0.00152416 µM, duplicate values
[3] = DYRK2 kinase, Conc. 0.00457247 µM, duplicate values
[4] = DYRK2 kinase, Conc. 0.0137174 µM, duplicate values
[5] = DYRK2 kinase, Conc. 0.0411523 µM, duplicate values
[6] = DYRK2 kinase, Conc. 0.123457 µM, duplicate values
[7] = DYRK2 kinase, Conc. 0.37037 µM, duplicate values
[8] = DYRK2 kinase, Conc. 1.11111 µM, duplicate values
[9] = DYRK2 kinase, Conc. 3.33333 µM, duplicate values
[10] = DYRK2 kinase, Conc. 10 µM, duplicate values

SMILES | % Inhibition [1] | % Inhibition [2] | % Inhibition [3] | % Inhibition [4] | % Inhibition [5] | % Inhibition [6] | % Inhibition [7] | % Inhibition [8] | % Inhibition [9] | % Inhibition [10] | IC50 | inhibition at 0.0137174 µM (DYRK2 kinase, Conc. 0.0137174 µM, duplicate values, read-out: % Inhibition) | inhibition at 0.0411523 µM (DYRK2 kinase, Conc. 0.0411523 µM, duplicate values, read-out: % Inhibition) | inhibition at 0.123457 µM (DYRK2 kinase, Conc. 0.123457 µM, duplicate values, read-out: % Inhibition) | inhibition at 0.37037 µM (DYRK2 kinase, Conc. 0.37037 µM, duplicate values, read-out: % Inhibition) | inhibition at 1.11111 µM (DYRK2 kinase, Conc. 1.11111 µM, duplicate values, read-out: % Inhibition) | inhibition at 3.33333 µM (DYRK2 kinase, Conc. 3.33333 µM, duplicate values, read-out: % Inhibition) | inhibition at 10 µM (DYRK2 kinase, Conc. 10 µM, duplicate values, read-out: % Inhibition)
CC(C)c1ccc2c(c1)C(N1CCN(CCc3ccc(F)cc3)CC1)Cc1ccc(F)cc1S2 (stereo not drawn) [Compound 1] | -1.87% and -4.38% | -4.34% and -6.85% | -8.65% and -6.11% | -12.64% and -10.09% | -8.55% and -6.02% | -2.02% and 0.35% | 1.52% and 4.04% | 8.35% and 5.81% | 1.80% and 0.0379% | 28.07% and 27.88% | > 10 µM | – | – | – | – | – | – | –
Cc1ccccc1C1C=C(c2ccccc2)OC(c2ccccc2)=C1C=NCCc1c[nH]c2ccccc12 (stereo not drawn) [Compound 2] | -5.36% and -2.56% | -6.00% and -8.80% | -4.71% and -7.51% | 3.44% and 4.28% | 3.20% and 5.16% | 5.94% and 3.15% | 4.61% and 6.29% | 5.16% and 2.64% | 1.41% and 4.21% | 9.74% and 12.54% | > 10 µM | – | – | – | – | – | – | –
COc1ccc(C2CC(c3ccc(Cl)cc3)=NN2c2ccc(C=NNc3ccccc3)cc2)cc1 (stereo not drawn) [Compound 3] | 1.91% and 4.22% | 6.35% and 8.58% | 2.63% and 4.93% | 8.54% and 10.71% | 6.26% and 8.49% | 10.47% and 12.60% | 12.78% and 14.86% | 20.14% and 19.70% | 22.94% and 20.08% | 22.88% and 24.74% | > 10 µM | – | – | – | – | – | – | –
O=C(CSc1nnc2sc3ccccc3n12)N1CCN(C(=O)CSc2nnc3sc4ccccc4n23)CC1 [Compound 4] | 0.98% and -1.30% | 14.00% and 9.63% | 3.52% and 1.28% | 7.11% and 4.92% | 13.04% and 8.66% | 25.55% and 23.66% | 22.22% and 20.28% | 26.61% and 24.74% | 20.66% and 23.29% | 27.83% and 25.98% | > 10 µM | – | – | – | – | – | – | –
CC(=NNc1nc2c(c(=O)n(Cc3ccccc3)c(=O)n2C)n1Cc1ccccc1)c1ccccc1 [Compound 5] | 1.24% and 7.59% | -1.11% and 5.39% | 11.00% and 16.72% | 2.77% and 9.02% | 5.65% and 11.72% | 2.54% and 8.81% | 4.47% and 10.61% | 17.84% and 23.14% | 28.55% and 33.16% | 29.52% and 31.99% | > 10 µM | – | – | – | – | – | – | –
CCOC(=O)CC1=NN(c2ccccc2)C(=O)C1=c1sc(=C2Sc3ccccc3N2C)c(=O)n1CC [Compound 6] | -4.08% and 2.50% | 1.60% and 6.11% | 3.31% and 7.66% | 5.42% and 7.24% | -2.71% and 2.20% | 2.56% and 6.98% | 3.14% and 5.17% | -1.20% and 3.57% | 2.35% and 4.46% | 7.66% and 11.60% | > 10 µM | – | – | – | – | – | – | –
Cc1ccc(CN(Cc2ccc(C=NNC(=O)c3c(C)nc4sccn34)o2)S(=O)(=O)c2ccc(C)cc2)cc1 [Compound 7] | -2.50% and -2.39% | -0.71% and 1.61% | 3.49% and 3.33% | 5.71% and 7.69% | -2.86% and -2.73% | 2.70% and 2.58% | 3.31% and 5.45% | -1.26% and -1.20% | 2.47% and 2.36% | 8.07% and 7.70% | > 10 µM | – | – | – | – | – | – | –
O=C(c1cccc(Cn2cc(Br)c([N+](=O)[O-])n2)c1)N1CCN(C(=O)c2ccco2)CC1 [Compound 8] | -2.60% and -0.07% | -3.65% and -2.08% | -3.85% and -2.28% | -16.34% and -14.56% | -10.92% and -10.74% | -6.09% and -4.48% | -6.00% and -2.89% | -5.16% and -3.57% | 2.31% and 3.77% | 17.16% and 18.38% | > 10 µM | – | – | – | – | – | – | –
CC(C)COc1cccc(-c2cc(C(=O)Nc3sc(C(C)C)cc3C(N)=O)c3ccccc3n2)c1 [Compound 9] | 0.43% and 0.42% | 1.70% and 1.66% | -1.24% and 1.19% | -4.62% and -2.11% | -1.40% and 1.03% | 2.80% and 5.13% | 6.00% and 8.26% | 12.51% and 17.02% | 18.00% and 19.98% | 35.11% and 36.69% | > 10 µM | – | – | – | – | – | – | –
Cn1c(=O)c2ncn(CC(=O)Nc3ccc4oc(-c5ccc(Cl)cc5Cl)nc4c3)c2n(C)c1=O [Compound 10] | -7.03% and -8.01% | -4.24% and -5.18% | -3.26% and -1.51% | -9.75% and -7.91% | -10.96% and -9.20% | 0.34% and -3.30% | 1.49% and 3.01% | 15.95% and 17.31% | 6.96% and 8.47% | 22.24% and 25.76% | > 10 µM | – | – | – | – | – | – | –
O=C(COc1ccccc1-c1ccnn1-c1ccccc1)NN=Cc1coc2ccc(Cl)cc2c1=O [Compound 11] | -0.64% and -0.50% | -10.49% and -4.61% | -7.80% and -6.47% | 2.76% and 2.77% | 5.64% and 5.65% | 2.54% | 6.34% and 2.72% | 14.05% and 16.10% | 22.86% and 21.57% | 38.49% and 39.53% | > 10 µM | – | – | – | – | – | – | –
Cn1c(CN2CCN(C(=O)C3CCCCC3)CC2)nc2cc(NC(=O)Nc3ccccc3)ccc21 [Compound 13] | 1.82% and 2.74% | 3.66% and 2.25% | 7.30% and 8.12% | 10.53% and 13.70% | 5.97% and 6.86% | 12.38% and 8.48% | 14.58% and 13.01% | 21.59% and 24.67% | 29.05% and 32.01% | 31.39% and 34.31% | > 10 µM | – | – | – | – | – | – | –
CC(C)Cc1nc(N2CCN(CC(=O)NCc3ccco3)CC2)c(C#N)c2c1COC(C)(C)C2 [Compound 14] | 0.98% and 2.97% | 13.91% and 15.64% | 3.50% and 5.44% | 7.06% and 8.93% | 12.96% and 14.71% | 25.38% and 26.88% | 22.08% and 23.65% | 26.44% and 27.92% | 22.42% and 24.14% | 27.65% and 29.11% | > 10 µM | – | – | – | – | – | – | –
COc1cc(-c2nnc(CSc3nc4c(OC)ccc(OC)c4[nH]3)o2)cc(OC)c1OC [Compound 15] | -1.53% and -4.09% | -4.76% and -6.22% | -1.13% and -0.37% | -10.53% and -12.16% | -9.17% and -11.37% | -2.00% and -9.98% | -8.29% and -9.76% | -3.66% and -9.01% | 0.93% and -1.24% | 16.42% and 14.23% | > 10 µM | – | – | – | – | – | – | –
CCN1CCN(Cc2ccc(Nc3ncc(F)c(-c4ccc5ncsc5c4)n3)nc2)CC1 [Compound 16] | 0.29% and 3.35% | -2.64% and 1.62% | 1.68% and 3.59% | 8.22% | 26.26% | 48.52% | 63.31% | 68.60% | 73.48% | 77.29% | – | 6.53% | 23.1% | 47.2% | 64.2% | 68.6% | 73.6% | 76.9%
